In patent US4141989A, “Fungicidal 3-(N-chloroacetyl-N-arylamino)-gamma-butyrolactone compositions” (Chevron Research Company, priority 1977, dated 1979) one finds pest or weed control data, which are given here for 27 compounds.

Experiment [1] has as its system Plasmopara viticola. In words: Preventive grape downy mildew control, detached Emperor leaves (Example 5, Table I). It counts as in vivo. Particulars: 100 ppm, sprayed before inoculation.
For experiment [2], the system named is Plasmopara viticola. Briefly: Eradicant grape downy mildew control, detached Emperor leaves (Example 6, Table I). It counts as in vivo. Particulars: 48 h, sprayed 2 days after inoculation, read-out: Eradicative Grape Downy Mildew Control, %.

For the compound `Cc1cccc(C)c1N(C(=O)CCl)C1CC(C)OC1=O` (stereo not shown) [B, 3-(N-chloroacetyl-N-2,6-dimethylphenylamino)-5-methyl-gamma-butyrolactone], the pest or weed control at 100 ppm with Plasmopara viticola [1] worked out at 80%. Further, in the experiment on Plasmopara viticola [2], the pest or weed control at 40 ppm came out at 95%.

On to `CCC(=O)N(c1ccc(Cl)c(Cl)c1)C1CCOC1=O` (stereo not shown) [Compound 1], for which the pest or weed control at 100 ppm with Plasmopara viticola [1] was 0%. Further, in the experiment with Plasmopara viticola [2], the pest or weed control at 40 ppm worked out at 5%. As to `Cc1cccc(C)c1N(C(=O)c1ccc(Cl)c(Cl)c1)C1CCOC1=O` (stereo not shown) [Compound 2], in the experiment on Plasmopara viticola [2], the pest or weed control at 100 ppm is 29%. As to `COc1ccccc1N(C(=O)CCl)C1CCOC1=O` (stereo not shown) [Compound 3], the pest or weed control at 100 ppm is 0% in the experiment with Plasmopara viticola [1] and 12% in the experiment on Plasmopara viticola [2]. Turning to `Cc1cccc(C)c1N(C(=O)CCl)C1CCN(C)C1=O` (stereo not shown) [Compound 4], in the experiment on Plasmopara viticola [2], the pest or weed control at 100 ppm came out at 3%. For the compound `O=C1OCCC1N(C(=O)CCl)c1ccccc1` (stereo not shown) [Compound 5], in the experiment on Plasmopara viticola [2], the pest or weed control at 100 ppm was found to be 0%. Turning to `CCc1cccc(CC)c1N(C(=O)CCl)C1CCOC1=O` (stereo not shown) [Compound 6], the pest or weed control at 100 ppm amounted to 0% with Plasmopara viticola [1] and 39% with Plasmopara viticola [2].

As for `CC(C)c1ccccc1N(C(=O)CCl)C1CCOC1=O` (stereo not shown) [Compound 7], in the experiment with Plasmopara viticola [1], the pest or weed control at 100 ppm came out at 3%. Besides, the pest or weed control at 16 ppm in the experiment on Plasmopara viticola [2] (16 ppm) is 17%. With `CCc1ccccc1N(C(=O)CCl)C1CCOC1=O` (stereo not shown) [Compound 8], the pest or weed control at 100 ppm in the experiment on Plasmopara viticola [1] and in the experiment with Plasmopara viticola [2] was 0% in each case. On to `O=C1OCCC1N(C(=O)CCl)c1c(Cl)cccc1Cl` (stereo not shown) [Compound 9], for which the pest or weed control at 100 ppm with Plasmopara viticola [1] turned out to be 0%. Further, in the experiment on Plasmopara viticola [2], the pest or weed control at 40 ppm was found to be 67% and the pest or weed control at 100 ppm worked out at 95%.

For `O=C1OCCC1N(C(=O)CCl)c1ccc(Cl)c(Cl)c1` (stereo not shown) [Compound 10], the pest or weed control at 100 ppm amounted to 89% in the experiment on Plasmopara viticola [1] and 39% in the experiment with Plasmopara viticola [2]. Taken in the same sequence, the figures for `O=C1OCCC1N(C(=O)CCl)c1cc(Cl)cc(Cl)c1` (stereo not shown) [Compound 11] were 45% and 54%.

`CCc1cccc(CC)c1N(C(=O)CCl)C1CC(C)OC1=O` (stereo not shown) [Compound 12]: the pest or weed control at 100 ppm in the experiment on Plasmopara viticola [2] was 87%. As to `CCc1cccc(C)c1N(C(=O)CCl)C1CCOC1=O` (stereo not shown) [Compound 13], the pest or weed control at 100 ppm in the experiment on Plasmopara viticola [1] was 0%; in the experiment on Plasmopara viticola [2], 87%. Turning to `CCc1cccc(C)c1N(C(=O)CCl)C1CC(C)OC1=O` (stereo not shown) [Compound 14], in the experiment on Plasmopara viticola [2], the pest or weed control at 100 ppm came out at 29%. Same read-out and setting: under `Cc1cccc(C)c1N(C(=O)CBr)C1CCOC1=O` (stereo not shown) [Compound 15] stands 54%; under `COc1cccc(OC)c1N(C(=O)CCl)C1CCOC1=O` (stereo not shown) [Compound 16], 67%; under `Cc1cccc(C)c1N(C(=O)CCCl)C1CCOC1=O` (stereo not shown) [Compound 17], 50%. Take `Cc1cccc(C)c1N(C(=O)CCl)C1CCN(C(C)C)C1=O` (stereo not shown) [Compound 18]: the pest or weed control at 100 ppm with Plasmopara viticola [1] was 15%; in the experiment on Plasmopara viticola [2], 37%. In the case of `Cc1cccc(C)c1N(C(=O)C(Cl)=C(Cl)Cl)C1CCOC1=O` (stereo not shown) [Compound 19], in the experiment on Plasmopara viticola [2], the pest or weed control at 100 ppm came out at 15%.

With `C=CCN1CCC(N(C(=O)CCl)c2c(C)cccc2C)C1=O` (stereo not shown) [Compound 20], in the experiment with Plasmopara viticola [2], the pest or weed control at 100 ppm turned out to be 0%. Same read-out and setting: for `Cc1cccc(C)c1N(C(=O)CCl)C1CCNC1=O` (stereo not shown) [Compound 21] the value was 0%; for `Cc1cc(N2CCC(N(C(=O)CCl)c3c(C)cccc3C)C2=O)ccc1Cl` (stereo not shown) [Compound 22], 32%; for `Cc1cccc(C)c1N(C(=O)c1ccc(Cl)cc1)C1CCN(C)C1=O` (stereo not shown) [Compound 23], 0%. Take `Cc1cc(C)c(N(C(=O)CCl)C2CCOC2=O)c(C)c1` (stereo not shown) [Compound 24]: in the experiment on Plasmopara viticola [2], the pest or weed control at 100 ppm came to 0%.

Take `Cc1cccc(C(C)(C)C)c1N(C(=O)CCl)C1CCOC1=O` (stereo not shown) [Compound 25]: the pest or weed control at 100 ppm in the experiment with Plasmopara viticola [2] amounted to 0%. Take `Cc1ccc(N(C(=O)CCl)C2CCOC2=O)cc1C` (stereo not shown) [Compound 26]: the pest or weed control at 100 ppm was 12% in the experiment with Plasmopara viticola [1] and 87% in the experiment on Plasmopara viticola [2].
